Activity calls are given as the source filed them.
Assays:
[1] = biological target: Glyceraldehyde-3-phosphate dehydrogenase (Homo sapiens, UniProt P04406)
A-375 = test: MITF: Counter assay: A375 proliferation Measured in Cell-Based System Using Plate Reader - 2084-03_Inhibitor_Dose_DryPowder_Activity. [Related pubchem assays (depositor defined):AID488944]; format: functional; settings: Homo sapiens
Protein RecA = biological target: T1, Protein RecA (Mycobacterium tuberculosis, UniProt P9WHJ3); test: Fluorescence Cell-Free Homogeneous Dose Retest to Identify Inhibitors of RecA-Intein Splicing Activity. [Related pubchem assays (depositor defined):AID2097, AID2223, AID489010, AID492950]; format: functional
T1 sequence (P9WHJ3 whole entry): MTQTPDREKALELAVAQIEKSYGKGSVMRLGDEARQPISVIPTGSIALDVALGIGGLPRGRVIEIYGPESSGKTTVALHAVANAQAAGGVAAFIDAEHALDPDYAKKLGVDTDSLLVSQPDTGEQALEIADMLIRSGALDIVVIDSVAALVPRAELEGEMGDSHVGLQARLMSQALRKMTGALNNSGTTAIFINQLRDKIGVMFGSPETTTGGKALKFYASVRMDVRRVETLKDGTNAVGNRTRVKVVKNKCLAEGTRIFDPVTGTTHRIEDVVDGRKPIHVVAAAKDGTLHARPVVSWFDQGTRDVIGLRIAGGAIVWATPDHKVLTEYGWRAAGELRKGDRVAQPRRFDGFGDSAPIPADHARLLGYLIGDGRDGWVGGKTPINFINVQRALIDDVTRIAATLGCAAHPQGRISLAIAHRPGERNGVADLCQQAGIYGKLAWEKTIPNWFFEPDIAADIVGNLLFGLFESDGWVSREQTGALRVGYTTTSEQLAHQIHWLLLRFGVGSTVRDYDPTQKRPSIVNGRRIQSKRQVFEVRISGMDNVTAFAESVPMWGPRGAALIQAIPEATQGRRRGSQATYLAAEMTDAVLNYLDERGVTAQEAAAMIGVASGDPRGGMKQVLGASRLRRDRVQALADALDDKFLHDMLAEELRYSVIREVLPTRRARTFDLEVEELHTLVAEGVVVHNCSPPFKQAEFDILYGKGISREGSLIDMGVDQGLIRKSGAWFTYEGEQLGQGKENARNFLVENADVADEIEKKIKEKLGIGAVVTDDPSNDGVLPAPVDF

[2] = biological target: T2, Replicative DNA helicase DnaB (Mycobacterium tuberculosis, UniProt P9WMR3); test: DnaB intein splicing inhibitors, dose response, biochemical, cell-free fluorescence (AID 449749); format: functional
T2 sequence (P9WMR3 whole entry): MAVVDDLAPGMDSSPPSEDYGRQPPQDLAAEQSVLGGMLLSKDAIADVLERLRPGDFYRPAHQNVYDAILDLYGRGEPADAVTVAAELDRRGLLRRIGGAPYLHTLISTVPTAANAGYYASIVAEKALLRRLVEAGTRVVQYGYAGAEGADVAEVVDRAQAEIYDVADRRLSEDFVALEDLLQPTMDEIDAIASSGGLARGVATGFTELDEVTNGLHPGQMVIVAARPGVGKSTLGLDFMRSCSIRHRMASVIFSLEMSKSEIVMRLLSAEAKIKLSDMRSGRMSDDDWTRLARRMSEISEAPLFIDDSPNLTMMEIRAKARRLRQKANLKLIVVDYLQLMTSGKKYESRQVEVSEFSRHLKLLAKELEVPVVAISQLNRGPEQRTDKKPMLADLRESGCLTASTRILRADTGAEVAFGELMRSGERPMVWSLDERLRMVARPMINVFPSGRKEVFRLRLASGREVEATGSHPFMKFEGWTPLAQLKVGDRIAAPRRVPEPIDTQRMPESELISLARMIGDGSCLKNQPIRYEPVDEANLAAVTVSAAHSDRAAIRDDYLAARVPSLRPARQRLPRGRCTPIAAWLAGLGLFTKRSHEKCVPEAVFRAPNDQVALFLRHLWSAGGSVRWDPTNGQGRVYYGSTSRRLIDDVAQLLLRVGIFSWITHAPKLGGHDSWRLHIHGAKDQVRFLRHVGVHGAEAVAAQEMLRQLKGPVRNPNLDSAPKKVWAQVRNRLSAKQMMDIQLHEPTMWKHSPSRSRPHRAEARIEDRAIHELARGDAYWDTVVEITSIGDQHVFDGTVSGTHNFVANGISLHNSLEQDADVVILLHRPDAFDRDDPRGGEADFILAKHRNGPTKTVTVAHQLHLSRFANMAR

Glyceraldehyde-3-phosphate dehydrogenase, sequence (P04406 whole entry): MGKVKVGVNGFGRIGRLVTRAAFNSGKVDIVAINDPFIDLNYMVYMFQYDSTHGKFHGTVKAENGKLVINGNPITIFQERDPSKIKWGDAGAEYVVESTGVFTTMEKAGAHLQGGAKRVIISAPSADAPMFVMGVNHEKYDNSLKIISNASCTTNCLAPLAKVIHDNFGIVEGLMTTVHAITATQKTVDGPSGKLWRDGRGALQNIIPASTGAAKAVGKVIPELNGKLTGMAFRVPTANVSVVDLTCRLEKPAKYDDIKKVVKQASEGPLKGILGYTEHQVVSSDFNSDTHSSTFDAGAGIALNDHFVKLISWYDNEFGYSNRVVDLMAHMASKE

Compound | IC50 [1] | AC50 (A-375) | EC50 (Protein RecA) | AC50 [2]
N#Cc1c(NC(=O)CSc2nc[nH]n2)sc2c1CCCCC2 | > 100 µM (not active) | > 35 µM (active) |  | 
COc1ccc(C(N)c2nccc3cc(OC)c(OC)cc23)cc1OC (centres undefined) |  |  | > 380 µM (inactive) | > 380 µM (inactive)
